According to paper PMC9364363 (RSC Advances, 2022):
In brackets after ≈: the same amount, converted by molar mass. Where two headings read alike, the source gives them in different places.

Legend:
M. avium subsp. avium = assay: microbe, parasite or virus in culture; assay type: cell-based, Mycobacterium avium subsp. avium; details: read-out: IC50 M. avium subsp. avium
M. intracellulare = assay: microbe, parasite or virus in culture; assay type: cell-based, Mycobacterium intracellulare; details: read-out: IC50 M. intracellulare
Mtb H37Ra^lux = assay: microbe, parasite or virus in culture; assay type: cell-based, Mycobacterium tuberculosis; details: for IC50: read-out: Mtb H37Ra^lux IC50
M. smegmatis = assay type: cell-based, Mycobacterium smegmatis; details: read-out: IC50 M. smegmatis; luminometry, 3 days
[1] = test system: MRC-5 lung fibroblast cell line
M. abscessus = assay: microbe, parasite or virus in culture; assay type: cell-based, Mycobacterium abscessus; details: read-out: IC50 M. abscessus
in vitro = details: human

Row | Molecule | IC50 (M. avium subsp. avium; luminometry, 7 days) | IC50 (M. intracellulare; luminometry, 7 days) | Mtb H37Ra^lux IC90 (MIC) (Mtb H37Ra^lux) | IC50 (Mtb H37Ra^lux) | IC50 (M. smegmatis) | T.I. CC50/IC50 [1] | IC50 (M. abscessus; luminometry, 3 days) | CC50 (in vitro) | IC50 (M. avium subsp. avium; Mycobacterium avium, 168 h) | IC50 (M. intracellulare; Mycobacterium intracellulare, 168 h) | IC50 (Mtb H37Ra^lux; Mycobacterium tuberculosis, H37RA, 168 h) | MIC (Mtb H37Ra^lux; Mycobacterium tuberculosis, H37RA, 168 h, read-out: Mtb H37Ra^lux IC90 (MIC)) | IC50 (M. abscessus; Mycobacteroides abscessus, 72 h)
1 | (4-(2-(4-((1H-Benzo-[d]-imidazole-2-yl)-thio)-1H-1,2,3-triazol-1-yl)-ethyl)-piperazin-1-yl)(2-methylbenzo-[d]-imidazo[2,1-b]-thiazol-3-yl)-methanone [IT16] | 124 µM | > 128 µM | 14.49 µM | 7.09 µM | 103 µM | 8.2 | > 128 µM | – | – | – | – | – | –
2 | Cc1nc2sccn2c1C(=O)N1CCN(CCn2cc(-c3ccc(C(C)(C)C)cc3)nn2)CC1 [IT02, (4-(2-(4-(4-(tert-Butyl)phenyl)-1H-1,2,3-triazol-1-yl)-ethyl)-piperazin-1-yl)(6-methylimidazo-[2,1-b]-thiazol-5-yl)-methanone] | – | – | – | – | – | 8.8 | – | 46 µM | 126 µM | 119 µM | 5.2 µM | 12.8 µM (≈ 6.13 µg/mL) | > 128 µM
